Data reported in PubChem BioAssay AID1919000 (Molecular Pharmacology Branch, DTP, NCI, 2023).
pIC50: −log10 of the molar value. Where “and” joins values, the source holds several entries; their conditions need not be identical. Equal entries are not always repeated.

System: 653999-131-R-J2-PDC complex spheroids, growth % test/control
Experiment: Anticancer human tumor 653999-131-R-J2-PDC patient-derived lung adenocarcinoma cell line growth inhibition [AhR]
Conditions: for viability, T/C: stronger effect = lower value
Summary of the method: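 Agents were dosed in half-log steps down from roughly clinical Cmax, or from 10 microM where Cmax was unknown, alone and with AhR antagonists. Read-out: percent test/control growth of tumor spheroids containing HUVEC and MSC stromal cells.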

[1] = curve of first compound, second compound 0.1 µM
[2] = curve of first compound, second compound 0.316 µM
[3] = curve of first compound, second compound 1 µM
[4] = curve of first compound, second compound 3.16 µM
[5] = curve of first compound, second compound 10 µM
[6] = second compound 0.1 µM, first compound 0.00316 µM
[7] = second compound 0.1 µM, first compound 0.01 µM
[8] = second compound 0.1 µM, first compound 0.0316 µM
[9] = second compound 0.1 µM, first compound 0.1 µM
[10] = second compound 0.316 µM, first compound 0.00316 µM
[11] = second compound 0.316 µM, first compound 0.01 µM
[12] = second compound 0.316 µM, first compound 0.0316 µM
[13] = second compound 0.316 µM, first compound 0.1 µM
[14] = second compound 1 µM, first compound 0.00316 µM
[15] = second compound 1 µM, first compound 0.01 µM
[16] = second compound 1 µM, first compound 0.0316 µM
[17] = second compound 1 µM, first compound 0.1 µM
[18] = second compound 3.16 µM, first compound 0.00316 µM
[19] = second compound 3.16 µM, first compound 0.01 µM
[20] = second compound 3.16 µM, first compound 0.0316 µM
[21] = second compound 3.16 µM, first compound 0.1 µM
[22] = second compound 10 µM, first compound 0.00316 µM
[23] = second compound 10 µM, first compound 0.01 µM
[24] = second compound 10 µM, first compound 0.0316 µM
[25] = second compound 10 µM, first compound 0.1 µM
[26] = second compound 0.1 µM, first compound 0.316 µM
[27] = second compound 0.1 µM, first compound 1 µM
[28] = second compound 0.1 µM, first compound 3.16 µM
[29] = second compound 0.1 µM, first compound 10 µM
[30] = second compound 0.316 µM, first compound 0.316 µM
[31] = second compound 0.316 µM, first compound 1 µM
[32] = second compound 0.316 µM, first compound 3.16 µM
[33] = second compound 0.316 µM, first compound 10 µM
[34] = second compound 1 µM, first compound 0.316 µM
[35] = second compound 1 µM, first compound 1 µM
[36] = second compound 1 µM, first compound 3.16 µM
[37] = second compound 1 µM, first compound 10 µM
[38] = second compound 3.16 µM, first compound 0.316 µM
[39] = second compound 3.16 µM, first compound 1 µM
[40] = second compound 3.16 µM, first compound 3.16 µM
[41] = second compound 3.16 µM, first compound 10 µM
[42] = second compound 10 µM, first compound 0.316 µM
[43] = second compound 10 µM, first compound 1 µM
[44] = second compound 10 µM, first compound 3.16 µM
[45] = second compound 10 µM, first compound 10 µM
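Note: spheroids exposed to agents for seven days.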
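Throughout, for viability, T/C: 100% = DMSO vehicle control viability.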

| Compound | pIC50 [1] | pIC50 [2] | pIC50 [3] | pIC50 [4] | pIC50 [5] | viability, T/C [8] | viability, T/C [9] | viability, T/C [12] | viability, T/C [13] | viability, T/C [16] | viability, T/C [17] | viability, T/C [20] | viability, T/C [21] | viability, T/C [24] | viability, T/C [25] | viability, T/C [26] | viability, T/C [27] | viability, T/C [30] | viability, T/C [31] | viability, T/C [34] | other results |
| --- | --- | --- | --- | --- | --- | --- | --- | --- | --- | --- | --- | --- | --- | --- | --- | --- | --- | --- | --- | --- | --- |
| Cn1ncnc1C1c2n[nH]c(=O)c3cc(F)cc(c23)NC1c1ccc(F)cc1 (centres undefined) + Cc1cncc(-c2nc(NCCc3c[nH]c4ccccc34)c3ncn(C(C)C)c3n2)c1 | < 7.00 | < 7.00 | < 7.00 | < 7.00 | < 7.00 | 86.6% | 85.6% | 85.6% | 86.5% | 103% | 94% | 100% | 98.2% | 47.5% | 58.3% | – | – | – | – | – | viability, T/C (second compound 0.1 µM, first compound 0.000316 µM): 96%; viability, T/C (second compound 0.1 µM, first compound 0.001 µM): 96.2%; viability, T/C [6]: 97.4%; viability, T/C [7]: 84.8%; viability, T/C (second compound 0.316 µM, first compound 0.000316 µM): 97.9%; viability, T/C (second compound 0.316 µM, first compound 0.001 µM): 92.5%; viability, T/C [10]: 94.3%; viability, T/C [11]: 90.6%; viability, T/C (second compound 1 µM, first compound 0.000316 µM): 104%; viability, T/C (second compound 1 µM, first compound 0.001 µM): 113%; viability, T/C [14]: 104%; viability, T/C [15]: 101%; viability, T/C (second compound 3.16 µM, first compound 0.000316 µM): 122%; viability, T/C (second compound 3.16 µM, first compound 0.001 µM): 99.5%; viability, T/C [18]: 104%; viability, T/C [19]: 93.7%; viability, T/C (second compound 10 µM, first compound 0.000316 µM): 52.4%; viability, T/C (second compound 10 µM, first compound 0.001 µM): 55.5%; viability, T/C [22]: 62%; viability, T/C [23]: 56% |
| COc1ccc([C@@H](O)c2cc(-c3ncnc4cc(N5CCOCC5)ccc34)c(F)cc2Cl)nn1 + Cc1ccccc1N=Nc1ccc(NC(=O)c2ccnn2C)c(C)c1 | 5.01 | < 5.00 | < 5.00 | < 5.00 | 5.11 | 101% | 105% | 114% | 114% | 96% | 94.5% | 96% | 107% | 89.5% | 101% | 88.7% | 74.2% | 88.7% | 83.6% | 109% | viability, T/C [28]: 66%; viability, T/C [29]: 48.6%; viability, T/C [32]: 65%; viability, T/C [33]: 51.8%; viability, T/C [35]: 87.6%; viability, T/C [36]: 62.8%; viability, T/C [37]: 54.9%; viability, T/C [38]: 98.7%; viability, T/C [39]: 88.1%; viability, T/C [40]: 67.9%; viability, T/C [41]: 54.5%; viability, T/C [42]: 95.1%; viability, T/C [43]: 83.6%; viability, T/C [44]: 70.9%; viability, T/C [45]: 44.2% |
| CC1COCCN1c1cc(-c2ccnn2C)c2ccnc(-c3ccn[nH]3)c2n1 (centres undefined) + CC(CO)NC(=O)c1cc(-c2ccc(Cl)cc2)nn(-c2cnn(C)c2)c1=O | 6.79 | 6.87 | 6.77 | 7.00 | 7.27 | 94% | 60.2% | 76.1% | 56.5% | 80.6% | 60.1% | 89.9% | 49.9% | 57% | 41.5% | 36.4% | 28.4% | 36.3% | 27.9% | 39.5% | viability, T/C [6]: 102%; viability, T/C [7]: 101%; viability, T/C [10]: 103%; viability, T/C [11]: 103%; viability, T/C [14]: 97.3%; viability, T/C [15]: 105%; viability, T/C [35]: 30.4%; viability, T/C [18]: 94%; viability, T/C [19]: 97.7%; viability, T/C [38]: 35.6%; viability, T/C [39]: 32.9%; viability, T/C [22]: 92.3%; viability, T/C [23]: 86.4%; viability, T/C [42]: 30.7%; viability, T/C [43]: 29.2% |
| Nc1ccccc1NC(=O)c1ccc(CNC(=O)OCc2cccnc2)cc1 | – | – | – | – | – | – | – | – | – | – | – | – | – | – | – | – | – | – | – | – | viability, T/C (compound 0.0316 µM): 98% and 89.6% and 98.3%; viability, T/C (compound 0.1 µM): 102% and 87.1% and 81%; viability, T/C (compound 0.316 µM): 83% and 80.2% and 77.3%; viability, T/C (compound 1 µM): 81% and 70.5% and 65.6%; viability, T/C (compound 3.16 µM): 57.5% and 63.4% and 69.3%; viability, T/C (compound 10 µM): 16% and 12.8% and 13.9%; pIC50 (curve of compound): 5.42 and 5.41 and 5.40 |
| Nc1ncn(C2CC(O)C(CO)S2)c(=O)n1 (centres undefined) | – | – | – | – | – | – | – | – | – | – | – | – | – | – | – | – | – | – | – | – | viability, T/C (compound 0.000949 µM): 101% and 99.4% and 103%; viability, T/C (compound 0.003 µM): 96.3% and 106% and 112%; viability, T/C (compound 0.00949 µM): 98.4% and 110% and 100%; viability, T/C (compound 0.03 µM): 94.8% and 91% and 102%; viability, T/C (compound 0.0949 µM): 94.3% and 101% and 104%; viability, T/C (compound 0.3 µM): 86.8% and 100% and 89%; pIC50 (curve of compound): < 6.52 |
| NS(=O)(=O)OCC1CC(n2ccc3c(NC4CCc5ccccc54)ncnc32)CC1O (centres undefined) + Cc1cncc(-c2nc(NCCc3c[nH]c4ccccc34)c3ncn(C(C)C)c3n2)c1 | 5.21 | 5.75 | < 5.00 | 6.02 | > 7.50 | 108% | 106% | 113% | 112% | 112% | 120% | 117% | 104% | 44.4% | 38% | 101% | 71.4% | 106% | 52.2% | 108% | viability, T/C [28]: 50.4%; viability, T/C [29]: 49.8%; viability, T/C [32]: 48.4%; viability, T/C [33]: 47.2%; viability, T/C [35]: 49.3%; viability, T/C [36]: 50.5%; viability, T/C [37]: 51.2%; viability, T/C [38]: 90.5%; viability, T/C [39]: 46.8%; viability, T/C [40]: 40.5%; viability, T/C [41]: 43.3%; viability, T/C [42]: 39.4%; viability, T/C [43]: 22.3%; viability, T/C [44]: 18.5%; viability, T/C [45]: 19.4% |
| CC1COCCN1c1cc(-c2ccnn2C)c2ccnc(-c3ccn[nH]3)c2n1 (centres undefined) + Cc1ccccc1N=Nc1ccc(NC(=O)c2ccnn2C)c(C)c1 | 6.77 | 6.80 | 6.71 | 6.86 | 6.63 | 82% | 59.7% | 78.4% | 60.3% | 76.9% | 65.1% | 84.5% | 54.9% | 76.3% | 57.6% | 38.7% | 34.5% | 36.6% | 31.8% | 37.9% | viability, T/C [6]: 98.7%; viability, T/C [7]: 101%; viability, T/C [10]: 103%; viability, T/C [11]: 103%; viability, T/C [14]: 102%; viability, T/C [15]: 100%; viability, T/C [35]: 36.3%; viability, T/C [18]: 103%; viability, T/C [19]: 107%; viability, T/C [38]: 39.8%; viability, T/C [39]: 35.1%; viability, T/C [22]: 89.7%; viability, T/C [23]: 89.3%; viability, T/C [42]: 49.8%; viability, T/C [43]: 39.1% |
| O=C(C=Cc1cccc(S(=O)(=O)Nc2ccccc2)c1)NO + Cc1ccccc1N=Nc1ccc(NC(=O)c2ccnn2C)c(C)c1 | 5.41 | 5.49 | 5.45 | 5.49 | 5.54 | 110% | 105% | 92.8% | 94.8% | 99.7% | 101% | 101% | 93.1% | 82.6% | 85.5% | 91.4% | 94.7% | 88% | 90.6% | 93.2% | viability, T/C [28]: 56.6%; viability, T/C [29]: 11.3%; viability, T/C [32]: 51.1%; viability, T/C [33]: 9.29%; viability, T/C [35]: 80.2%; viability, T/C [36]: 54.9%; viability, T/C [37]: 10.3%; viability, T/C [38]: 99%; viability, T/C [39]: 81.5%; viability, T/C [40]: 51.4%; viability, T/C [41]: 10.1%; viability, T/C [42]: 76.7%; viability, T/C [43]: 71.8%; viability, T/C [44]: 47.8%; viability, T/C [45]: 7.74% |
